Marks after values point to notes of the source that are not given here.
System: feline calicivirus (FCV)
Test: 405 nm light inactivation of FCV suspended in supplemented minimal medium, counted by plaque assay on FEA cells
Assay type: cell-based, feline calicivirus vaccine strain F9

## Cc1cc2nc3c(=O)[nH]c(=O)nc-3n(C[C@H](O)[C@H](O)[C@H](O)CO)c2cc1C [Riboflavin]
FCV in MM plus components at DMEM concentrations, after
  Log10 reduction/inactivation of FCV: 1.3 Log10
FCV in minimal media plus photosensitive components at DMEM concentrations, 155 mW cm^−2, mean count n = 3 ± SD
  Exposed Viral Population (±St Dev): 3.77 ± 0.61
FCV in minimal media plus photosensitive components, 155 mW cm^−2, exposed vs non-exposed control, asterisk = P ≤ 0.05
  Log10 Reduction: 1.28* Log10
